Test results from patent US4588713A, “Selective biologically active 7-oxo-prostacyclin derivatives and pharmaceutical compositions containing same” (Chinoin Gyogyszer Vegyeszeti Termekek Gyara Rt., priority 1984, dated 1986).
In brackets after ≈: the same amount, converted by molar mass. Entries after “also recorded” stand apart in the source; their conditions may differ. Where a name gives a salt, the structure may show the parent alone.

Columns and labels:
[1] = tested on: anaesthetized cat with an open-chest; test: Hypotensive (haemodynamic, blood pressure reducing) activity, i.v. bolus, anaesthetized open-chest cat; type: in vivo; conditions: for ED50: Felis catus, iv; for relative efficiency H^2 (hypotensive): relative to PGI2-Na = 1
Protocol: (§1) The selective biological activity of these compounds may be studied by investigating the antiaggregation and hypotensive activity simultaneously. Anti-aggregation activity was measured in vitro according to Born Nature, 214, 927 (1962) on human plasma enriched with thrombocytes in an aggregation induced by […] ADP, whereas the haemodynamic activity was obtained from the blood pressure reducing activity of the compound administered in an i.v. bolus injection to an anaesthetized cat with an open-chest.

[2] = tested on: antiaggregation and hypotensive activity; test: Selectivity: antiaggregation versus hypotensive activity; conditions: for H^1 /H^2: relative anti-aggregation efficiency / relative hypotensive efficiency
Protocol: as §1

[3] = tested on: human plasma enriched with thrombocytes; test: Anti-aggregation activity in vitro (Born), ADP-induced aggregation; type: cell-based; conditions: for relative efficiency H^1 (anti-aggregation): relative to PGI2-Na = 1
Protocol: as §1

[4] = background; cited from earlier work
[5] = i.v. bolus, anaesthetized open-chest cat
[6] = in vitro, human plasma enriched with thrombocytes, 2 μm ADP

| IC50 [3, 6] | anti-aggregation IC50 [3, 6] | Compound | ED50 [1, 5] | relative efficiency H^2 (hypotensive) [1] | H^1 /H^2 [2] | relative efficiency H^1 (anti-aggregation) [3] | chemical and biological stability (in words) [4] | hypotensive activity ED50 [1, 5] | selectivity compared with prostacycline and 7-oxo-PGI2 sodium salt (in words) ([2]; from H^1/H^2, listed as cyclopentyl analog) |
| --- | --- | --- | --- | --- | --- | --- | --- | --- | --- |
| 15 ng/mL | – | CCCCC[C@H](O)/C=C/[C@@H]1[C@H]2C(=O)/C(=C/CCCC(=O)O)O[C@H]2C[C@H]1O [7-oxo-PGI2 --Na, sodium salt of 7-oxo-PGI2] | 6.5 µg/kg | 0.024 | 2.75 | 0.086 | – | – | – |
| 1 ng/mL (≈ 2.84 nM) | – | CCCCC[C@H](O)/C=C/[C@@H]1[C@H]2C/C(=C/CCCC(=O)O)O[C@H]2C[C@H]1O [PGI2 --Na] | 0.16 µg/kg | 1 | 1 | – | – | – | – |
| – | – | CCCCC[C@H](O)/C=C/[C@@H]1[C@H]2C/C(=C/CCCC(=O)O)O[C@H]2C[C@H]1O [PGI2, Prostacyclin] | – | – | – | – | chemical and biological instability | – | – |
| – | 1.6 ng/mL | O=C([O-])CCCC=C1OC2CC(O)C(C=CC(O)C3CCCC3)C2C1=O.[Na+] (stereo not shown) [Sodium salt of 7-oxo-16,17,18,19,20-pentanor-15-cyclopentyl-PGI2] | – | 0.0075 | 83.1 | 0.625 | – | 21.2 µg/kg | about hundred times more selective than prostacycline; also recorded: considerably more selective than the sodium salt of 7-oxo-PGI2 |
